Measured values: US9096639B2, “17-hydroxy-17-pentafluorethyl-estra-4,9(10)-dien-11-acyloxyalkylene phenyl derivatives, methods for the production thereof and use thereof for treating diseases” (Bayer Intellectual Property GmbH, priority 2009, dated 2015)

Legend:
[1] = Determination of hydrolytic stability (5:1 dioxane/buffer, HPLC); assay type: physicochemical; details: 5:1 dioxane/buffer solution, test ended after 24 or 192 hours, read-out: Hydrolytic stability t1/2
Experimental: The ester to be analyzed was dissolved in each case in a 5:1 mixture of dioxane and buffer solution (pH 1.2, pH 5.0 or pH 8.0) at 23° C. At different times, the content of ester and hydrolysis products (8S,11R,13S,14S,1 7S)-17-hydroxy-11-[4-((R)-1-hydroxyethyl)phenyl]-13-methyl-17-pentafluoroethyl-1,2,6,7,8,11,12,13,14,15,16,17-dodecahydrocyclopenta[a]phenanthren-3-one and/or (8S,11R,13S,14S,17S)-17-hydroxy-11-[4-((S)-1-hydroxyethyl)phenyl]-1 3-methyl-17-pentafluoroethyl-1,2,6,7,8,11,12,13,14,15,16,17-dodecahydrocyclopenta[a]phenanthren-3-one was determined by HPLC. The test was ended after 24 hours or 192 hours.

[2] = Determination of hydrolytic stability in synthetic gastric juice (pH 1.2 buffer with pepsin); assay type: in vitro ADME; details: 37° C., pH 1.2 with added pepsin, test ended after 24 hours, read-out: Hydrolytic stability t1/2 in synthetic gastric juice (converted)
Experimental: The esters to be analyzed were dissolved in each case in a buffer solution of pH 1.2 with added pepsin at 37° C. At different times, the content of ester and hydrolysis products (8S,11R,13S,14S,17S)-17-hydroxy-11-[4-((R)-1-hydroxyethyl)phenyl]-1 3-methyl-17-pentafluoroethyl-1,2,6,7,8,11,12,13,14,15,16,17-dodecahydrocyclopenta[a]phenanthren-3-one and/or (8S,11R,13S,14S,17S)-17-hydroxy-11-[4-((S)-1-hydroxyethyl)phenyl]-13-methyl-17-pentafluoroethyl-1,2,6,7,8,11,12,13,14,15,16,17-dodecahydrocyclopenta[a]phenanthren-3-one was determined by HPLC. The test was ended after 24 hours.

[3] = Determination of stability in rat plasma; assay type: in vitro ADME; details: 37° C., read-out: Stability t1/2 in rat plasma (converted)
Experimental: A stock solution of 1.0 mg of the substance to be tested in a 9:1 mixture of acetonitrile and dimethyl sulphoxide was prepared. 20 μl of this stock solution were added at 37° C. to 1 ml of human plasma or rat plasma. To determine the content, 100 μl samples were each taken at different times. The enzyme activity was blocked by adding 300 μl of acetonitrile, the samples were centrifuged at 5000 rpm over 10 minutes and, in the supernatant, the content of ester and hydrolysis products (8S,11R,13S,14S,17S)-17-hydroxy-11-[4-((R)-1-hydroxyethyl)phenyl]-1 3-methyl-17-pentafluoroethyl-1,2,6,7,8,11,12,13,14,15,16,17-dodecahydrocyclopenta[a]phenanthren-3-one and/or (8S,11R,13S,14S,17S)-17-hydroxy-11-[4-((S)-1-hydroxyethyl)phenyl]-13-methyl-17-pentafluoroethyl-1,2,6,7,8,11,12,13,14,15,16,17-dodecahydrocyclopenta[a]phenanthrene-3-one was determined by HPLC. The concentration-time curves were used to calculate the degradation kinetics. The stability of the substance tested was reported as the half-life.

[4] = biological target: T1, human progesterone receptor B (Homo sapiens, UniProt P06401); assay: Progesterone receptor transactivation test in stably transfected SK-N-MC cells (PR-B, MMTV-LUC reporter); assay type: cell-based; details: 0.1 nmol/l promegestone, 24 hours, read-out: PR-B IC50 (antagonistic potency)
T1 construct: expressed in transfected cells; host or cells: SK-N-MC human neuroblastoma cells, stably transfected with pRChPR-B-neo and pMMTV-LUC
T1 sequence (P06401 1-933): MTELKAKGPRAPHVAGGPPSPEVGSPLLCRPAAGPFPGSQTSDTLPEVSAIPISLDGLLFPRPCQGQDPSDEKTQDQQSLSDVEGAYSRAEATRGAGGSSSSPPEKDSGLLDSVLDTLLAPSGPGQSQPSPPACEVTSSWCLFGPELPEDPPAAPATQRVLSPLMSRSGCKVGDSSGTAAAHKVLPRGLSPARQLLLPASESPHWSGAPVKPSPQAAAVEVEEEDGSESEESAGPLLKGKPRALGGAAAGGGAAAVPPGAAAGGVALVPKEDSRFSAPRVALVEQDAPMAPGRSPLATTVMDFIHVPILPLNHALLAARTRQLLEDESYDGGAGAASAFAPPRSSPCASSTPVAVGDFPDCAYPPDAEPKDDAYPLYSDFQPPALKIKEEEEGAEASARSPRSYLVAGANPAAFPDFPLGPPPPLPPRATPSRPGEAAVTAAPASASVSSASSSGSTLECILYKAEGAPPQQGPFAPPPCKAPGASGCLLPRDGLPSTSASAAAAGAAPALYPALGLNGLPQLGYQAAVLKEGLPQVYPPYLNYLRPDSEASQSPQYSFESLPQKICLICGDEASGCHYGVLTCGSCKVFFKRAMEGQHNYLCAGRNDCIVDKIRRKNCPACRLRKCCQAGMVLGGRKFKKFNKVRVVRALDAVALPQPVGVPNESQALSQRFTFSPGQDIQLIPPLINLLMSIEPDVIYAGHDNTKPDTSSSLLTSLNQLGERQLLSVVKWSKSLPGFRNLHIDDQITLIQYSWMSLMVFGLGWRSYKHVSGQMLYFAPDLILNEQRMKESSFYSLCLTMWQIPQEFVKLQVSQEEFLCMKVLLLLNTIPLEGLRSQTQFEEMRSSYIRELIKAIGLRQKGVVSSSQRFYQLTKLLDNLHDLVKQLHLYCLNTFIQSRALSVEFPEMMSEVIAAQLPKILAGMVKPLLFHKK
Experimental: Progesterone receptor-antagonistic action in stable transfectants of human neuroblastoma cells (SK-N-MC cells) with the human progesterone A or progesterone B receptor and an MN-LUC reporter construct SK-N-MC cells (human neuroblastoma cells) which have been stably transfected with plasmids expressing the human progesterone receptor B (pRChPR-B-neo) or the human progesterone receptor A (pRChPR-A-neo) and a reporter construct (pMMTV-LUC) were incubated for 24 hours either in the absence (negative control) or in the presence of ascending amounts of the particular test compound (0.01 nmol/l, 0.1 nmol/l, 1 […], 100 nmol/l and […]), in order to determine the agonistic efficacy. As a positive control of the reporter gene induction, the cells were treated with the synthetic gestagen promegestone (0.01 nmol/l, 0.1 nmol/l, 1 nmol/l, 10 nmol/l, 100 nmol/l and […]). To determine the antagonistic activity, the cells were treated with 0.1 nmol/l promegestone and additionally with ascending amounts of the particular test compound (0.01 nmol/l, 0.1 nmol/l, 1 nmol/l, 10 nmol/l, 100 nmol/l and […]). The activity of the reporter gene LUC (LUC=luciferase) was determined in the cell lysates and measured as RLU (relative light units). All measurements are reported as % efficacy and as EC50 and IC50 concentrations.

SMILES | half-life ([1]; pH = 1.2, 23° C.) [h] | half-life ([1]; pH = 5.0, 23° C.) [h] | half-life ([1]; pH = 8.0, 23° C.) [h] | half-life [2] [h] | half-life [3] [h] | IC50 [4] [nM]
CC(=O)O[C@H](C)c1ccc([C@H]2C[C@@]3(C)C(CC[C@@]3(O)C(F)(F)C(F)(F)F)C3CCC4=CC(=O)CCC4=C32)cc1 (mixture of isomers) [Example 1, acetic acid (RS)-1-[4-((8S,11R,13S,14S,17S)-17-hydroxy-13-methyl-3-oxo-17-pentafluoroethyl-2,3,6,7,8,11,12,13,14,15,16,17-dodecahydro-1H-cyclopenta[a]phenanthren-11-yl)phenyl]ethyl ester] | > 24 | > 24 | > 24 | 9.6 | 57.5 | 0.08
CC(C)CC(=O)OC(C)c1ccc([C@H]2C[C@@]3(C)C(CC[C@@]3(O)C(F)(F)C(F)(F)F)C3CCC4=CC(=O)CCC4=C32)cc1 (mixture of isomers) [Example 3, 3-Methylbutyric acid (RS)-1-[4-((8S,11R,13S,14S,17S)-17-hydroxy-13-methyl-3-oxo-17-pentafluoroethyl-2,3,6,7,8,11,12,13,14,15,16,17-dodecahydro-1H-cyclopenta[a]phenanthren-11-yl)phenyl]ethyl ester] | > 24 | > 24 | > 24 | > 24 | 89 | 0.2
CC(OC(=O)CC(C)(C)C)c1ccc([C@H]2C[C@@]3(C)C(CC[C@@]3(O)C(F)(F)C(F)(F)F)C3CCC4=CC(=O)CCC4=C32)cc1 (mixture of isomers) [Example 4, 3,3-Dimethylbutyric acid (RS)-1-[4-((8S,11R,13S,14S,17S)-17-hydroxy-13-methyl-3-oxo-17-pentafluoroethyl-2,3,6,7,8,11,12,13,14,15,16,17-dodecahydro-1H-cyclopenta[a]phenanthren-11-yl)phenyl]ethyl ester] | > 24 | > 24 | > 24 | > 24 | > 1000 | 0.4
CC(OC(=O)[C@@H](C)NC(=O)OC(C)(C)C)c1ccc([C@H]2C[C@@]3(C)[C@@H](CC[C@@]3(O)C(F)(F)C(F)(F)F)[C@@H]3CCC4=CC(=O)CCC4=C32)cc1 (mixture of isomers) [Example 6, (R)-2-tert-Butoxycarbonylaminopropionic acid (RS)-1-[4-((8S,11R,13S,-14S,17S)-17-hydroxy-13-methyl-3-oxo-17-pentafluoroethyl-2,3,6,7,8,11,12,13,14,15,16,17-dodecahydro-1H-cyclopenta[a]phenanthren-11-yl)phenyl]ethyl ester] | > 24 | > 24 | > 24 | 5.4 | 43.9 | 0.2
CC(C)C(=O)OC(C)c1ccc([C@H]2C[C@@]3(C)C(CC[C@@]3(O)C(F)(F)C(F)(F)F)C3CCC4=CC(=O)CCC4=C32)cc1 (mixture of isomers) [Example 2, Isobutyric acid (RS)-1-[4-((8S,11R,13S,14S,17S)-17-hydroxy-13-methyl-3-oxo-17-pentafluoroethyl-2,3,6,7,8,11,12,13,14,15,16,17-dodecahydro-1H-cyclopenta[a]-phenanthren-11-yl)phenyl]ethyl ester] | > 24 | > 24 | > 24 | > 24 | 33.4 | 0.1
CC(OC(=O)[C@@H](NC(=O)OC(C)(C)C)C(C)C)c1ccc([C@H]2C[C@@]3(C)C(CC[C@@]3(O)C(F)(F)C(F)(F)F)C3CCC4=CC(=O)CCC4=C32)cc1 (mixture of isomers) [Example 5, (S)-2-tert-Butoxycarbonylamino-3-methylbutyric acid (RS)-1-[4-((8S,11R,-13S,14S,17S)-17-hydroxy-13-methyl-3-oxo-17-pentafluoroethyl-2,3,6,7,8,11,12,13,14,15,-16,17-dodecahydro-1H-cyclopenta[a]phenanthren-11-yl)phenyl]ethyl ester] | > 192 | > 192 | > 192 | 3 | 156 | 0.8
CC(OC(=O)[C@H](C)NC(=O)OC(C)(C)C)c1ccc([C@H]2C[C@@]3(C)C(CC[C@@]3(O)C(F)(F)C(F)(F)F)C3CCC4=CC(=O)CCC4=C32)cc1 (mixture of isomers) [Example 7, (S)-2-tert-Butoxycarbonylaminopropionic acid (RS)-1-[4-((8S,11R,13S,-14S,17S)-17-hydroxy-13-methyl-3-oxo-17-pentafluoroethyl-2,3,6,7,8,11,12,13,14,15,16,17-dodecahydro-1H-cyclopenta[a]phenanthren-11-yl)phenyl]ethyl ester] | > 24 | > 24 | > 24 | 4.4 | 3.1 | 0.1
